Test results taken from patent publication US4885297A, “Thiazolopyridine compounds, processes for the preparation thereof and pharmaceutical composition comprising the same” (Fujisawa Pharmaceutical Co., Ltd., priority 1987, dated 1989).
Where two headings read alike, the source gives them in different places.

What was measured:
[1] = tested on: Platelet aggregation (rat blood); test: Platelet aggregation ex vivo (collagen-induced, after oral administration); type: in vivo, Male Sprague-Dawley rats; details: one hour after administration, collagen 5.0 μg/ml
Protocol: Male Sprague-Dawley rats weighing about 250 g were used after overnight fasting. One hour after oral administration of test compound or vehicle of test compound (control), blood was collected into a tube containing 0.1 vol. of 3.8% sodium citrate. To the 0.45 ml of blood, 0.05 ml of collagen (final concentration 5.0 μg/ml) was added and then incubated for 5 min. at 37° C. under shaking.
The reaction was terminated by addition of 1 ml of 10 mM phosphate buffered saline (pH 7.4) containing 11.5 mM EDTA and 1% formalin. The reaction mixture was centrifuged at 70 xg for 5 min. and platelet count of upper phase was measured by Technicon Auto Analizer.
Platelet aggregation was calculated according to the following formula: [formula] A; Platelet count after addition of vehicle of collagen B; Platelet count after addition of collagen
Inhibition of the test compound was calculated according to the following formula; [formula] C; Platelet aggregation (%) of control D; Platelet aggregation (%) of Test compound

[2] = tested on: Platelet aggregation (rabbit platelet rich plasma); test: Platelet aggregation in vitro (rabbit platelet rich plasma, ADP- or collagen-induced); type: cell-based; details: Oryctolagus cuniculus, rabbit PRP, pH 7.4, 37° C.
Protocol: Platelet rich plasma (PRP) which contains 6-7×10^8 platelets/ml was prepared from rabbit blood. To the 200 μl of PRP, 5 μl of calcium chloride (1 mM) and 50 μl of 25 mM Tris-acetate solution (pH 7.4) containing 120 mM NaCl or test compound were added successively, and then stirred for 2 min. at 37° C. To the solution, 5 μl of adenosine diphosphate (ADP) (2.5 μM) or collagen (2.5 μg/ml) was added to an aggregation inducer. Aggregation was measured by using an aggregometer (NKK HEMATRACER 1). Activities of inhibitors (test compounds) were expressed as ID50 values i.e. Doses required to inhibit the platelet aggregation responses by 50%.

CN1CCN(C(=O)Cn2c(=O)sc3ncc(Cl)cc32)CC1 [Example 2, 6-chloro-2-oxo-1-[(4-methyl-1-piperazinyl)carbonylmethyl]-1,2-dihydrothiazolo[5,4-b]pyridine]
Inhibition (%) ([1]; 10 mg/kg oral): 8% | Inhibition (%) ([1]; 32 mg/kg oral): 103% | Inhibition (%) ([1]; 100 mg/kg oral): 121% | IC50 ([2]; inducer ADP (2.5 μM), read-out: ID50 ADP): 55 µM | IC50 ([2]; inducer collagen (2.5 μg/ml), read-out: ID50 Collagen): 37 µM
